{
  "source": "patent US7348151B1",
  "about": "“Method for the cellular high-throughput-detection of nuclear receptor ligand interactions” (priority 1998, dated 2008)",
  "tested_on": "ligand-binding domain of the human estrogen receptor (amino acids 282-595) fused to human Ha-Ras (L61) in cdc25-2 yeast cells",
  "format": "cell-based",
  "conditions": "for growth of cdc25-2-yeast cells: Glu medium + E (10^−5M)",
  "from_the_text": "Expression of a functional, membrane-associated Ras protein fused to a nuclear receptor and/or parts of one such can be detected by the fact that the yeast cells are able to grow irrespective of the presence of a functional GEF protein at said restrictive temperatures if a suitable ligand of the expressed nuclear receptor is present.\nThe basic vector used is a vector with a marker gene (Ura) and a galactose-inducible promoter (GALI) for the fusion gene to be expressed. As shown diagrammatically in FIG. 2, the DNA sequence to be expressed encodes:\n1. a myristylation signal,\n3. the human Ha-Ras (L61) which is constitutively active and which lacks the so-called CAAX box, the farnesylation signal for membrane localization.\nConventional yeast transformation and manipulation protocols (see, for example, Hill et al. (1991), NAR 19, 5791) were used. The cells were plated out either on a glucose minimal medium which contains the necessary amino acids and nucleotides (20 mg/l histidine, 100 mg/l leucine, 20 mg/l tryptophan, 20 mg/l uracil, 10 mg/l adenine sulfate), 2% glucose, 0.5% NH4SC4, 0.17% yeast extract and 4% agar, or on galactose medium (1.7 g/l yeast nitrogen without amino acids, 5 g/l ammonium sulfate, 30 g/l galactose (>99%) 20 g/l D-raffinose, 20 g/l glycerol (100%), 30 g/l Bacto Agar).\nClones were plated out on YPD medium (1% yeast extract, 2% Bacto tryptone and 2% glucose) as control. YPD medium contains no galactose, so that there ought to be no expression of the fusion protein.\nReplica platings were carried out with velvet replica plater. After transformation with the nucleic acid vector described above, the cells were plated out on glucose plates and incubated at a non-restrictive temperature of 25° C. for three to four days.",
  "note": "Where two headings read alike, the source gives them in different places.",
  "data": [
    {"substance": "estrogen", "values": [
      {"measurement": "growth of cdc25-2-yeast cells", "setting": "25° C. (non-restrictive)", "value": "+"},
      {"measurement": "growth of cdc25-2-yeast cells", "setting": "37° C. (restrictive), 12 to 36 h, OD 600", "value": "−"},
      {"measurement": "cell reproduction of transformed clones", "setting": "YPD medium (no galactose, no expression of the fusion protein) with addition of estrogen, control", "value": "no cell reproduction"}
    ]}
  ]
}
